# Laboratory results: article PMC11992225, “Antibacterial compounds against non-growing and intracellular bacteria” (npj Antimicrobials and Resistance, 2025)
# pEC50, pIC50: −log10 of the molar value. Read-outs that look alike come from different tables or passages of the source.
# Key:
# E. coli CFT073 (UPEC) = test: MIC, standard microdilution assay, growing UPEC; format: cell-based, Escherichia coli; conditions: E. coli; for MIC (μM) CA-MHB +PAβN: CA-MHB with 10 μg/ml efflux pump inhibitor PaβN
# Summary of the method: (§1)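 Each strain was exposed to serially diluted compound in broth, in triplicate. The media were TSB for Shigella; CA-MHB at pH 7.4 (HEPES 40 mM) for S. aureus, P. aeruginosa and UPEC; and, for UPEC only, low-pH LPM (pH 5.5, 30 mM MES).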
# S. flexneri 5a M90T = test: MIC in tryptic soy broth, S. flexneri; format: cell-based, Shigella flexneri; conditions: for MIC: Shigella flexneri, 5AM90T, read-out: MIC (μM) TSB
# Summary of the method: as §1
# [1] = test system: non-growing P. aeruginosa DSM1117; test: Dilution-regrowth assay (OD600, start-growth-time) on stationary-phase P. aeruginosa; format: cell-based, Pseudomonas aeruginosa; conditions: P. aeruginosa; for Regrowth, OD600 at 6h or 8h after dilution into drug-free medium: average; for pEC50: Pseudomonas aeruginosa, DSM1117, regrowth delay of non-growing bacteria, 1:4 CA-MHB pH 7.4, 24 h treatment, OD600 8 h after dilution, read-out: EC50; for Regrowth: OD600 after dilution into drug-free medium (mean): OD600 at 6h or 8h
# Procedure: To determine the spectrum of activity of the compounds that were effective against non-growing UPEC, we further assessed their efficacy against the well-characterized Gram-negative and Gram-positive reference strains P. aeruginosa DSM1117 and S. aureus DSM2569, respectively. The cultures were grown and treated for 24 h in 1:4 CA-MHB (pH 7.4). […].
# For better characterization of the compounds causing the strongest regrowth delay, we performed the regrowth step of the dilution-regrowth experiments on a plate reader, measuring the OD600 at 20-min intervals for over 20 h instead of using an endpoint measurement. This approach allowed us to capture the time when cultures reached a threshold optical density (start-growth-time, SGT[15]).
# Overnight cultures of UPEC, P. aeruginosa and S. aureus were grown in test tubes containing 3 ml of LB broth (~16 h), then diluted 1:100 into either 1:4 diluted CA-MHB medium buffered with 40 mM HEPES (pH 7.4) or, in case of UPEC, into LPM medium[25] supplemented with 49 µM MgCl2 and buffered with 30 mM MES (pH 5.5). The cultures were incubated for 24 h in non-baffled Erlenmeyer flasks at 37 °C with shaking at 200 rpm.
# For P. aeruginosa and S. aureus, dose–response analysis was conducted in 96-well plates with a 200 μl assay volume, following the procedure used for screening assay validation experiments. Aliquots of the 39 compounds active against non-growing UPEC were obtained from SelleckChem and MedChem Express. Stock solutions were prepared and stored according to the manufacturers’ instructions, then diluted in 10% DMSO before use. Cultures were incubated for 24 h in 1:4 diluted CA-MHB medium under the same conditions used for UPEC cultivation. In preliminary experiments, each compound was tested at a concentration of 20 μM in the dilution-regrowth assay with 4 technical replicates. Regrowth was monitored using a microplate reader at 37 °C with continuous shaking, and OD600 was recorded every 20 min. The time at which OD600 exceeded the threshold of 0.12 was recorded as the Start_Growth-Time.
# (§2) The statistical analysis of all data, as well as EC50 and IC50 determination, was conducted using GraphPad Prism 10.2.3. Statistical significance of the drug effects was assessed using a one-way ANOVA followed by Dunnett’s test, comparing each treatment to the drug-free control. Statistical significance of the differences in chemical characteristics between the hit compounds and the Prestwick library was assessed using a Mann–Whitney test. Statistical significance was set at P ≤ 0.05. A five-parameter logistic equation was used for asymmetric sigmoidal curve fitting and for EC50 and IC50 determination. The Venn diagram in Fig. 1F was prepared using BioVenn web application. Characteristics of the chemical and physical properties of Prestwick library compounds were obtained from Supplementary Table S1 from reference. Characteristics of the hit compounds not included in the Prestwick library were retrieved from the PubChem database.
# [2] = test system: intracellular S. flexneri 5a M90T in TC7 cells; test: microbe, parasite or virus in culture; format: cell-based, Shigella flexneri; conditions: for pIC50: Shigella flexneri, TC7, 14 h; for Fluorescence intensity (RFU), Mean, 0.5 x MIC / Fluorescence intensity (RFU), Mean, 2 x MIC / Fluorescence intensity (RFU), Mean, 4 x MIC / Fluorescence intensity (RFU), Mean, 8 x MIC / Fluorescence intensity (RFU), Mean, 16 x MIC / Fluorescence intensity (RFU), Mean, 32 x MIC / Fluorescence intensity (RFU), Mean, MIC / Fluorescence intensity (RFU), Mean, 0.0625 x MIC / Fluorescence intensity (RFU), Mean, 0.125 x MIC / Fluorescence intensity (RFU), Mean, 0.25 x MIC: TC7 cells infected with GFP-expressing S. flexneri, 14 h treatment
# Text: Nonproliferating bacterial pathogens frequently inhabit intracellular environments, but establishing relevant infection models for high-throughput testing is challenging. Therefore, we firstly tested ability of the hit compounds to cross the eukaryotic cytoplasmic membrane barrier and inhibit growth of S. flexneri within the cytoplasm of the TC7 human colon adenocarcinoma cell line[59]. To this end, we developed a new, fluorescence-based method that enables real-time monitoring of growth of intracellular Shigella. We used S. flexneri 5a M90T strain producing the AfaE adhesin that enhances bacterial adhesion to epithelial cells and allows synchronization of invasion. The strain was further modified to constitutively express super-folder GFP (sfGFP), which enables monitoring bacterial growth by fluorescence measurement. The epithelial cells were grown to confluence and infected with bacteria at an MOI (multiplicity of infection) of 50. […] Following bacterial adhesion and invasion, the cells were incubated with varying concentrations of the hit compounds and intracellular bacterial growth was tracked by measuring green fluorescence.
# The cells were split using trypsin, seeded in 96-well plates for infection, and grown to confluence, corresponding to approximately 40,000 cells per well.
# A single colony of S. flexneri was inoculated into TSB supplemented with 50 μg/ml spectinomycin and incubated overnight at 37°C with agitation. The overnight culture was diluted 1:200 in fresh TSB, and the bacteria were grown at 37 °C until the OD600 reached 0.3–0.4, corresponding to approximately 2 × 10^7 CFU/ml. Bacteria were pelleted by centrifugation, washed twice with sterile PBS, and resuspended in infection solution (serum-free DMEM supplemented with 20 mM HEPES, pH 7.4). Just prior to infection, the medium was withdrawn, and the cells were washed twice with sterile PBS. The bacterial inoculum (MOI 50, 2 × 10^7 CFU/ml) was added to all wells except the no-infection control. The plates were incubated at room temperature for 15 min to allow bacterial adhesion, followed by a 1 h incubation at 37 °C with 5% CO2 to facilitate bacterial invasion.
# Twofold serial dilutions of the drugs were prepared in infection solution containing 50 μg/ml gentamicin in a 96-well plate. After the invasion period, the bacterial inoculum was removed, and the serial dilutions of the drugs were added to the wells, except for the no-drug control. […] […] The experiments were performed in triplicates on separate days.
# as §2, with “Statistical” for “The statistical analysis of all data, as well as EC50 and IC50 determination, was conducted using GraphPad Prism 10.2.3. Statistical”
# S. aureus DSM2569 = test: MIC, standard microdilution assay, growing S. aureus; format: cell-based, Staphylococcus aureus; conditions: S. aureus; for MIC: CA-MHB pH 7.4, read-out: MIC (μM) CA-MHB
# Summary of the method: as §1
# [3] = Escherichia coli, pH 7.4, CA-MHB, read-out: MIC (μM) CA-MHB
# [4] = Escherichia coli, LPM pH 5.5, read-out: MIC
# [5] = Escherichia coli, pH 7.4, 1:4 diluted CA-MHB, read-out: MIC (μM) 1:4 CA-MHB
compound,measurement,setting,value
N[C@@H]1CCCCN(c2c(F)cc3c(=O)c(C(=O)O)cn(C4CC4)c3c2Cl)C1 [Besifloxacin],MIC,E. coli CFT073 (UPEC); [3],0.25 µM
same,MIC,S. flexneri 5a M90T,0.25 µM
same,"Regrowth, OD600 at 6h or 8h after dilution into drug-free medium",[1]; concentration 0.1,0.563
same,"Regrowth, OD600 at 6h or 8h after dilution into drug-free medium",[1]; concentration 0.5,0.201
same,"Regrowth, OD600 at 6h or 8h after dilution into drug-free medium",[1]; concentration 2.5,0.091
same,"Regrowth, OD600 at 6h or 8h after dilution into drug-free medium",[1]; concentration 10,0.090
same,pEC50,[1],6.58
same,pIC50,[2],6.48
same,"Fluorescence intensity (RFU), Mean, 0.5 x MIC",[2],8982.33 RFU
same,"Fluorescence intensity (RFU), Mean, 2 x MIC",[2],4305.25 RFU
same,"Fluorescence intensity (RFU), Mean, 4 x MIC",[2],3977.14 RFU
same,"Fluorescence intensity (RFU), Mean, 8 x MIC",[2],2983.69 RFU
same,"Fluorescence intensity (RFU), Mean, 16 x MIC",[2],2325.53 RFU
same,"Fluorescence intensity (RFU), Mean, 32 x MIC",[2],1789.06 RFU
same,"Fluorescence intensity (RFU), Mean, MIC",[2],5856.42 RFU
same,MIC,"S. aureus DSM2569; Staphylococcus aureus, DSM2569",0.25 µM
CO[C@H]1/C=C/O[C@@]2(C)Oc3c(C)c(O)c4c(c3C2=O)C2=NC3(CCN(CC(C)C)CC3)NC2=C(NC(=O)/C(C)=C\C=C\[C@H](C)[C@H](O)[C@@H](C)[C@@H](O)[C@@H](C)[C@H](OC(C)=O)[C@@H]1C)C4=O [Rifabutin],MIC,E. coli CFT073 (UPEC); [4],2 µM
same,MIC,E. coli CFT073 (UPEC); [5],0.625 µM
same,MIC,E. coli CFT073 (UPEC); [3],8 µM
same,MIC,S. flexneri 5a M90T,32 µM
same,Regrowth: OD600 after dilution into drug-free medium (mean),[1]; concentration 0.1,0.637
same,Regrowth: OD600 after dilution into drug-free medium (mean),[1]; concentration 0.5,0.579
same,Regrowth: OD600 after dilution into drug-free medium (mean),[1]; concentration 2.5,0.109
same,Regrowth: OD600 after dilution into drug-free medium (mean),[1]; concentration 10,0.093
same,pEC50,[1],6.03
same,MIC,"S. aureus DSM2569; Staphylococcus aureus, DSM2569",0.025 µM
CO[C@H]1/C=C/O[C@@]2(C)Oc3c(C)c(O)c4c(O)c(c(/C=N/N5CCN(C)CC5)c(O)c4c3C2=O)NC(=O)/C(C)=C\C=C\[C@H](C)[C@H](O)[C@@H](C)[C@@H](O)[C@@H](C)[C@H](OC(C)=O)[C@@H]1C [Rifampicin],MIC (μM) CA-MHB +PAβN,E. coli CFT073 (UPEC); pH 7.4,1 µM
same,MIC,E. coli CFT073 (UPEC); [4],0.5 µM
same,MIC,E. coli CFT073 (UPEC); [5],5 µM
same,MIC,E. coli CFT073 (UPEC); [3],8 µM
same,MIC,S. flexneri 5a M90T,8 µM
same,pIC50,[2],5.49
same,"Fluorescence intensity (RFU), Mean, 0.0625 x MIC",[2],10229.8 RFU
same,"Fluorescence intensity (RFU), Mean, 0.125 x MIC",[2],10528.2 RFU
same,"Fluorescence intensity (RFU), Mean, 0.25 x MIC",[2],10619.3 RFU
same,"Fluorescence intensity (RFU), Mean, 0.5 x MIC",[2],4149.04 RFU
same,"Fluorescence intensity (RFU), Mean, 2 x MIC",[2],1695.78 RFU
same,"Fluorescence intensity (RFU), Mean, 4 x MIC",[2],1392.42 RFU
same,"Fluorescence intensity (RFU), Mean, 8 x MIC",[2],1299.69 RFU
same,"Fluorescence intensity (RFU), Mean, 16 x MIC",[2],1165.58 RFU
same,"Fluorescence intensity (RFU), Mean, 32 x MIC",[2],1042.53 RFU
same,"Fluorescence intensity (RFU), Mean, MIC",[2],2886.31 RFU
same,MIC,"S. aureus DSM2569; Staphylococcus aureus, DSM2569",0.0125 µM
CO[C@H]1/C=C/O[C@@]2(C)Oc3c(C)c(O)c4c(O)c(c(/C=N/N5CCN(C6CCCC6)CC5)c(O)c4c3C2=O)NC(=O)/C(C)=C\C=C\[C@H](C)[C@H](O)[C@@H](C)[C@@H](O)[C@@H](C)[C@H](OC(C)=O)[C@@H]1C [Rifapentine],MIC,E. coli CFT073 (UPEC); [4],0.25 µM
same,MIC,E. coli CFT073 (UPEC); [5],5 µM
same,MIC,E. coli CFT073 (UPEC); [3],8 µM
same,MIC,S. flexneri 5a M90T,16 µM
same,pIC50,[2],5.51
same,"Fluorescence intensity (RFU), Mean, 0.0625 x MIC",[2],10012.8 RFU
same,"Fluorescence intensity (RFU), Mean, 0.125 x MIC",[2],10655.7 RFU
same,"Fluorescence intensity (RFU), Mean, 0.25 x MIC",[2],3668.46 RFU
same,"Fluorescence intensity (RFU), Mean, 0.5 x MIC",[2],1616.31 RFU
same,"Fluorescence intensity (RFU), Mean, 2 x MIC",[2],1321.39 RFU
same,"Fluorescence intensity (RFU), Mean, 4 x MIC",[2],1243.06 RFU
same,"Fluorescence intensity (RFU), Mean, 8 x MIC",[2],1167.19 RFU
same,"Fluorescence intensity (RFU), Mean, 16 x MIC",[2],915.083 RFU
same,"Fluorescence intensity (RFU), Mean, MIC",[2],1458.03 RFU
same,MIC,"S. aureus DSM2569; Staphylococcus aureus, DSM2569",0.0125 µM
C=C[C@]1(C)C[C@@H](OC(=O)CSC(C)(C)CNC(=O)[C@H](N)C(C)C)[C@]2(C)[C@H](C)CC[C@]3(CCC(=O)[C@H]32)[C@@H](C)[C@@H]1O [Valnemulin],MIC (μM) CA-MHB +PAβN,E. coli CFT073 (UPEC); pH 7.4,10 µM
same,MIC,E. coli CFT073 (UPEC); [5],10 µM
same,MIC,E. coli CFT073 (UPEC); [3],20 µM
same,MIC,S. flexneri 5a M90T,16 µM
same,pEC50,[1],6.49
same,MIC,"S. aureus DSM2569; Staphylococcus aureus, DSM2569",0.125 µM
Bleomycin,MIC,"E. coli CFT073 (UPEC); LPM pH 5.5, read-out: MIC",0.5 µM
same,MIC,"E. coli CFT073 (UPEC); pH 7.4, CA-MHB, read-out: MIC (μM) CA-MHB",0.5 µM
same,MIC (μM) TSB,"S. flexneri 5a M90T; S. flexneri, extracellular bacteria in TSB",0.25 µM
same,inhibition of intracellular Shigella,[2]; TC7 cells,inactive
same,MIC (μM) 1:4 CA-MHB,S. aureus DSM2569; 1:4 diluted CA-MHB pH 7.4,3.125 µM
same,MIC,S. aureus DSM2569,12.5 µM
